Experimental data taken from publication PMC3407089, “Influence of GABAA Receptor α Subunit Isoforms on the Benzodiazepine Binding Site” (PLoS ONE, 2012).

How the values were obtained:
[1] = test system: α6S203Cβ2γ2 GABAA receptor; experiment: Covalent reaction at the functional level (two-electrode voltage clamp, Xenopus oocytes); assay type: cell-based; details: 1 µM Abecarnil at GABA EC2–5, naive oocytes
Description: (§1) Capped cRNAs were synthesized (Ambion, Austin, TX, USA) from the linearized plasmids with a cytomegalovirus promotor (pCMVvectors) containing the different subunits, respectively. A poly-A tail of about 400 residues was added to each transcript using yeast poly- A polymerase (United States Biologicals, Cleveland, OH, USA). The concentration of the cRNA was quantified on a formaldehyde gel using Radiant Red stain (Bio-Rad) for visualization of the RNA. Known concentrations of RNA ladder (Invitrogen) were loaded as standard on the same gel. cRNAs were precipitated in ethanol/isoamylalcohol 19∶ 1, the dried pellet dissolved in water and stored at −80°C. cRNA mixtures were prepared from these stock solutions and stored at −80°C. Xenopus laevis oocytes were prepared, injected and defolliculated as described previously, [39]. They were injected with 50 nL of the cRNA solution containing wild type or mutated α1 or α2, α3, α5, α6 and wild type β2 and γ2 subunits at a concentration of 10 nM : 10 nM : 50 nM [40] and then incubated in modified Barth’s solution at +18°C for at least 24 h before the measurements.
(§2) Currents were measured using a modified two-electrode voltage clamp amplifier Oocyte clamp OC-725 (Warner Instruments) in combination with a XY-recorder (90% response time 0.1s) or digitized at 100 Hz using a PowerLab 2/20 (AD Instruments) using the computer programs Chart (ADInstruments GmbH, Spechbach, Germany). Tests with a model oocyte were performed to ensure linearity in the larger current range. The response was linear up to 15 µA.
(§3) Electrophysiological experiments were performed by using the two-electrode voltage clamp method at a holding potential of −80 mV. The perfusion medium contained 90 mM NaCl, 1 mM KCl, 1 mM MgCl2, 1 mM CaCl2, and 5 mM Na-HEPES (pH 7.4) and was applied by gravity flow 6 ml/min. The perfusion medium was applied through a glass capillary with an inner diameter of 1.35 mm, the mouth of which was placed about 0.4 mm from the surface of the oocyte. Allosteric modulation via the benzodiazepine site was measured at a GABA concentration eliciting 2–5% of the maximal GABA current amplitude. GABA was applied for 20 s alone or in combination with allosteric compound. 6 ml of the covalent reacting compound was applied to the oocyte and incubated for 3 min while stopping the flow of the perfusion medium. Modulation of GABA currents was expressed as (I(modulator + GABA)/IGABA –1) * 100%. The perfusion system was cleaned between drug applications by washing with DMSO to avoid contamination.

[2] = test system: α6N204Cβ2γ2 GABAA receptor; experiment: as above; assay type: cell-based; details: 1 µM Abecarnil at GABA EC2–5, naive oocytes
Description: as §1, §2, §3

[3] = test system: α3T231Cβ2γ2 GABAA receptor; experiment: as above; assay type: cell-based; details: 1 µM diazepam at GABA EC2–5, naive oocytes
Description: as §1, §2, §3

[4] = test system: α5T208Cβ2γ2 GABAA receptor; experiment: as above; assay type: cell-based; details: 1 µM diazepam at GABA EC2–5, naive oocytes
Description: as §1, §2, §3

[5] = test system: T1, α5T210Cβ2γ2 GABAA receptor; experiment: as above; assay type: cell-based; details: 1 µM diazepam at GABA EC2–5, naive oocytes
T1 construct: expressed in transfected cells; host or cells: Xenopus laevis oocytes (cRNA injection)
Description: as §1, §2, §3

[6] = test system: α5S209Cβ2γ2 GABAA receptor; experiment: as above; assay type: cell-based; details: 1 µM diazepam at GABA EC2–5, naive oocytes
Description: as §1, §2, §3

[7] = test system: α3S230Cβ2γ2 GABAA receptor; experiment: as above; assay type: cell-based; details: 1 µM diazepam at GABA EC2–5, naive oocytes
Description: as §1, §2, §3

[8] = test system: α1S204Cβ2γ2 GABAA receptor; experiment: as above; assay type: cell-based; details: 1 µM diazepam at GABA EC2–5, naive oocytes
Description: as §1, §2, §3

α6 containing receptors = test system: T2, α6 containing receptors; experiment: Functional modulation of GABA currents (Xenopus oocytes); assay type: cell-based; details: functional level
T2 construct: expressed in transfected cells; host or cells: Xenopus laevis oocytes (cRNA injection)
Description: as §1, with “Xenopus laevis oocytes were prepared, injected and defolliculated as described previously, [39]. They were injected with 50 nL of the cRNA solution containing wild type or mutated α1 or α2, α3, α5, α6 and wild type β2 and γ2 subunits at a concentration of 10 nM : 10 nM : 50 nM [40] and then incubated in modified Barth’s solution at +18°C for at least 24 h before the measurements.” left out
as §2, with “Tests with a model oocyte were performed to ensure linearity in the larger current range. The response was linear up to 15 µA.” left out
Electrophysiological experiments were performed by using the two-electrode voltage clamp method at a holding potential of −80 mV. […] Allosteric modulation via the benzodiazepine site was measured at a GABA concentration eliciting 2–5% of the maximal GABA current amplitude. […] Modulation of GABA currents was expressed as (I(modulator + GABA)/IGABA –1) * 100%. […]

α6T205Cβ2γ2 receptor = molecular target: T3, α6T205Cβ2γ2 receptor (Rattus norvegicus, UniProt P18508+P30191, T224C); experiment: Affinity estimate with [^3H]Ro15–4513; assay type: binding; details: read-out: Estimated affinity
T3 construct: expressed in transfected cells; host or cells: HEK293 cells (ATCC CRL 1573), membranes
Description: (§4) cDNAs coding for the αx (x = 1, 2, 3, 6), β2, and γ2S subunits DNA (20 µg : 20 µg : 20 µg) per 9 cm diameter dish were transfected in human embryonic kidney (HEK) 293 cells (American Type of Culture Collection, MD, USA, CRL 1573) using the calcium phosphate precipitation technique. For α5 containing receptors β2 was replaced by β1. […] Culturing of cells and membrane preparation were done as described before.
(§5) The properties of the recombinant mutant receptors were only estimated. For this affinity estimate, membranes were re-suspended in phosphate buffer using a Teflon homogenizer. They were incubated in a total volume of 360 µl for 1 h on ice in the presence of [^3H]Ro15–1788 (78.6 Ci/mmol; PerkinElmer Life Sciences). The final protein concentration was 0.1–1 mg of protein/ml. Total binding was measured at 0.5 and 5 nM [^3H]Ro15–1788. Nonspecific binding was determined under the same condition but in the presence of 100 µM unlabeled Ro15–1788 and amounted to less than 10% of total binding, except for α2S206Cβ2γ2 and α5T208Cβ2γ2 where it amounted to 10–17%. Expression levels of α6β2γ2 receptors were estimated with [^3H]Ro15–4513. Membranes were collected by rapid vacuum filtration on GF/C filters. After three washing steps (3 sec each) with 5 ml of phosphate buffer, the filter-retained radioactivity was determined by liquid scintillation counting.

α2G207Cβ2γ2 receptors = test system: T4, α2G207Cβ2γ2 receptors; experiment: Radioactive ligand binding; details: not shown
T4 construct: expressed in transfected cells; host or cells: HEK293 cells (ATCC CRL 1573), membranes
Description: as §4, §5

α1G207Cβ2γ2 receptors = test system: T5, α1G207Cβ2γ2 receptors; experiment: Radioactive ligand binding; details: not shown
T5 construct: expressed in transfected cells; host or cells: HEK293 cells (ATCC CRL 1573), membranes
Description: as §4, §5

T3 sequence (P30191 20-453 T224C): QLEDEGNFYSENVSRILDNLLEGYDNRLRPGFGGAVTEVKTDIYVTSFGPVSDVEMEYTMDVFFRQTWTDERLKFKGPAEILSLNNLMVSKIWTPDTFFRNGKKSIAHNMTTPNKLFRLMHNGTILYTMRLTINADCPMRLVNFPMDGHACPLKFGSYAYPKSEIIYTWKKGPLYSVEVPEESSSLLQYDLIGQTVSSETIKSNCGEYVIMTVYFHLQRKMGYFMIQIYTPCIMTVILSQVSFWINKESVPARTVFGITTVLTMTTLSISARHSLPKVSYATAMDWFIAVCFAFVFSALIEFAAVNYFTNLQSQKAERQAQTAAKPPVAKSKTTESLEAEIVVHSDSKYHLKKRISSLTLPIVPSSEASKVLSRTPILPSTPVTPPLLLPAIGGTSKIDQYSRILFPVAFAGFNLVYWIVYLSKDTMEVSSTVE
T3 sequence (P63138 25-474 partner limits assumed): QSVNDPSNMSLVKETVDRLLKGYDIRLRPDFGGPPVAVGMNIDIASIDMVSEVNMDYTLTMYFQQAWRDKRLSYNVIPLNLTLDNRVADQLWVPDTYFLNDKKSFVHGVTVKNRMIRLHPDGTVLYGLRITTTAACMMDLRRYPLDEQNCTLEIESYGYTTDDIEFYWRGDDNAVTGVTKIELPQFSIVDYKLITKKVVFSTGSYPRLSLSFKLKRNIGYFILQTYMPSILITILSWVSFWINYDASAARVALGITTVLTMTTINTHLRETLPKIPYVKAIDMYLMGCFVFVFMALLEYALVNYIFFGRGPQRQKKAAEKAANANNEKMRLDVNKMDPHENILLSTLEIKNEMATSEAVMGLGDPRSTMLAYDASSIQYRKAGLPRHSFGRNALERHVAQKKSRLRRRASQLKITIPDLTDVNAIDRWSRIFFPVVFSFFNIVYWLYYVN
T3 sequence (P18508 39-466): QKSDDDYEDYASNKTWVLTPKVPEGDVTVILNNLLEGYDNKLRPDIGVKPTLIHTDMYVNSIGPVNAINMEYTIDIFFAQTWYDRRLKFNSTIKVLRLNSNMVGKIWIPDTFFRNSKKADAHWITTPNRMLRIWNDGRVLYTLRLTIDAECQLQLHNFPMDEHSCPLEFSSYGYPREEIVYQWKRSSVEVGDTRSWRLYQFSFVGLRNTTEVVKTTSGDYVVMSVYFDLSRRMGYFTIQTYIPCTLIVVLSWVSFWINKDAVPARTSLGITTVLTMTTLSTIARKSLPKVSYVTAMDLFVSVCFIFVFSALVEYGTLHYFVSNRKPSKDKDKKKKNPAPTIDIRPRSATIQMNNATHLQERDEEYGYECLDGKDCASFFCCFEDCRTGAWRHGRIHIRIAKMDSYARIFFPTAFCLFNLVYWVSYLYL

COCc1c(C(=O)OC(C)C)ncc2[nH]c3ccc(OCc4ccccc4)cc3c12 [Abecarnil, reference compound]
% allosteric modulation, DZ (*1µM Abecarnil was used) [1]: 50±20 % | % allosteric modulation, DZ (*1µM Abecarnil was used) [2]: 70±40 %

CN1C(=O)CN=C(c2ccccc2)c2cc(Cl)ccc21 [DZ, diazepam, reference compound]
% allosteric modulation, DZ [3]: 88±45% | % allosteric modulation, DZ [4]: 129±38% | % allosteric modulation, DZ [5]: 82±14% | % allosteric modulation, DZ [6]: 103±3% | % allosteric modulation, DZ [7]: 149±44% | % allosteric modulation, DZ [8]: 126±9% | Response to diazepam (in words) (α6 containing receptors): did not respond

CCOC(=O)c1ncn2c1CN(C)C(=O)c1cc(N=[N+]=[N-])ccc1-2 [[^3H]Ro15–4513]
Kd (α6T205Cβ2γ2 receptor): 4 nM

CCOC(=O)c1ncn2c1CN(C)C(=O)c1cc(F)ccc1-2 [[^3H]Ro 15–1788]
High affinity binding (in words) (α2G207Cβ2γ2 receptors): did not confer to the expressed receptors high affinity | High affinity binding (in words) (α1G207Cβ2γ2 receptors): did not confer to the expressed receptors high affinity

CN1C(=O)CN=C(c2ccccc2F)c2cc([N+](=O)[O-])ccc21 [[^3H]flunitrazepam, flunitrazepam]
High affinity binding (in words) (α2G207Cβ2γ2 receptors): did not confer to the expressed receptors high affinity | High affinity binding (in words) (α1G207Cβ2γ2 receptors): did not confer to the expressed receptors high affinity
